ChEMBL document CHEMBL2413072, “Synthesis and in vitro anticancer studies of novel C-2 arylidene congeners of lantadenes” (2013)

Columns and labels:
Format in all cases: functional
U-251 = test: Growth inhibition of human U251 cells assessed as growth inhibition at 10 uM by sulforhodamine B assay; conditions: read-out: GI
K562 [1] = test: Growth inhibition of human K562 cells assessed as growth inhibition at 10 uM by sulforhodamine B assay; conditions: read-out: GI
UACC-257 = test: Growth inhibition of human UACC257 cells assessed as cell growth at 10 uM by sulforhodamine B assay; conditions: read-out: Activity
SF-268 [2] = test: Growth inhibition of human SF268 cells assessed as growth inhibition at 10 uM by sulforhodamine B assay; conditions: read-out: GI
[3] = Growth inhibition of human HCC2998 cells assessed as cell growth at 10 uM by sulforhodamine B assay; conditions: HCC 2998, read-out: Activity
CAKI-1 [4] = test: Growth inhibition of human CAKI-1 cells assessed as cell growth at 10 uM by sulforhodamine B assay; conditions: read-out: Activity
M14 [5] = test: Growth inhibition of human M14 cells assessed as cell growth at 10 uM by sulforhodamine B assay; conditions: read-out: Activity
OVCAR-4 = test: Growth inhibition of human OVCAR4 cells assessed as cell growth at 10 uM by sulforhodamine B assay; conditions: read-out: Activity
KM12 [6] = test: Growth inhibition of human KM12 cells assessed as growth inhibition at 10 uM by sulforhodamine B assay; conditions: read-out: GI
RPMI-8226 [7] = test: Growth inhibition of human RPMI8226 cells assessed as growth inhibition at 10 uM by sulforhodamine B assay; conditions: read-out: GI
MDA-MB-435 = test: Growth inhibition of human MDA-MB-435 cells assessed as growth inhibition at 10 uM by sulforhodamine B assay; conditions: read-out: GI
SN12C [8] = test: Growth inhibition of human SN12C cells assessed as growth inhibition at 10 uM by sulforhodamine B assay; conditions: read-out: GI
UO-31 [9] = test: Growth inhibition of human UO31 cells assessed as growth inhibition at 10 uM by sulforhodamine B assay; conditions: read-out: GI
SF-268 [10] = test: Growth inhibition of human SF268 cells assessed as cell growth at 10 uM by sulforhodamine B assay; conditions: read-out: Activity
SK-MEL-5 = test: Growth inhibition of human SK-MEL-5 cells assessed as growth inhibition at 10 uM by sulforhodamine B assay; conditions: read-out: GI
SF-539 [11] = test: Growth inhibition of human SF539 cells assessed as growth inhibition at 10 uM by sulforhodamine B assay; conditions: read-out: GI
PC-3 = test: Growth inhibition of human PC3 cells assessed as cell growth at 10 uM by sulforhodamine B assay; conditions: read-out: Activity
UO-31 [12] = test: Growth inhibition of human UO31 cells assessed as cell growth at 10 uM by sulforhodamine B assay; conditions: read-out: Activity
RXF 393 = test: Growth inhibition of human RXF393 cells assessed as growth inhibition at 10 uM by sulforhodamine B assay; conditions: read-out: GI
UACC-62 = test: Growth inhibition of human UACC62 cells assessed as growth inhibition at 10 uM by sulforhodamine B assay; conditions: read-out: GI
BT-549 [13] = test: Growth inhibition of human BT549 cells assessed as cell growth at 10 uM by sulforhodamine B assay; conditions: read-out: Activity
KM12 [14] = test: Growth inhibition of human KM12 cells assessed as cell growth at 10 uM by sulforhodamine B assay; conditions: read-out: Activity
SF-295 = test: Growth inhibition of human SF295 cells assessed as cell growth at 10 uM by sulforhodamine B assay; conditions: read-out: Activity
DU-145 = test: Growth inhibition of human DU145 cells assessed as growth inhibition at 10 uM by sulforhodamine B assay; conditions: read-out: GI
[15] = Growth inhibition of human Hs 578T cells assessed as cell growth at 10 uM by sulforhodamine B assay; conditions: read-out: Activity
OVCAR-3 = test: Growth inhibition of human OVCAR3 cells assessed as growth inhibition at 10 uM by sulforhodamine B assay; conditions: read-out: GI
SF-539 [16] = test: Growth inhibition of human SF539 cells assessed as cell growth at 10 uM by sulforhodamine B assay; conditions: read-out: Activity
RPMI-8226 [17] = test: Growth inhibition of human RPMI8226 cells assessed as cell growth at 10 uM by sulforhodamine B assay; conditions: read-out: Activity
CAKI-1 [18] = test: Growth inhibition of human CAKI-1 cells assessed as growth inhibition at 10 uM by sulforhodamine B assay; conditions: read-out: GI
SNB-19 = test: Growth inhibition of human SNB19 cells assessed as growth inhibition at 10 uM by sulforhodamine B assay; conditions: read-out: GI
Malme-3M [19] = test: Growth inhibition of human MALME-3M cells assessed as cell growth at 10 uM by sulforhodamine B assay; conditions: read-out: Activity
HCT-116 = test: Growth inhibition of human HCT116 cells assessed as cell growth at 10 uM by sulforhodamine B assay; conditions: read-out: Activity
OVCAR-5 = test: Growth inhibition of human OVCAR5 cells assessed as cell growth at 10 uM by sulforhodamine B assay; conditions: read-out: Activity
M14 [20] = test: Growth inhibition of human M14 cells assessed as growth inhibition at 10 uM by sulforhodamine B assay; conditions: read-out: GI
NCI-H460 [21] = test: Growth inhibition of human NCI-H460 cells assessed as growth inhibition at 10 uM by sulforhodamine B assay; conditions: read-out: GI
Malme-3M [22] = test: Growth inhibition of human MALME-3M cells assessed as growth inhibition at 10 uM by sulforhodamine B assay; conditions: read-out: GI
SW-620 = test: Growth inhibition of human SW620 cells assessed as cell growth at 10 uM by sulforhodamine B assay; conditions: read-out: Activity
A498 = test: Growth inhibition of human A498 cells assessed as growth inhibition at 10 uM by sulforhodamine B assay; conditions: read-out: GI
K562 [23] = test: Growth inhibition of human K562 cells assessed as cell growth at 10 uM by sulforhodamine B assay; conditions: read-out: Activity
MDA-MB-468 = test: Growth inhibition of human MDA-MB-468 cells assessed as growth inhibition at 10 uM by sulforhodamine B assay; conditions: read-out: GI
HL-60(TB) = test: Growth inhibition of human HL-60(TB) cells assessed as growth inhibition at 10 uM by sulforhodamine B assay; conditions: read-out: GI
HCT-15 = test: Growth inhibition of human HCT15 cells assessed as growth inhibition at 10 uM by sulforhodamine B assay; conditions: read-out: GI
BT-549 [24] = test: Growth inhibition of human BT549 cells assessed as growth inhibition at 10 uM by sulforhodamine B assay; conditions: read-out: GI
MCF7 = test: Growth inhibition of human MCF7 cells assessed as cell growth at 10 uM by sulforhodamine B assay; conditions: read-out: Activity
SN12C [25] = test: Growth inhibition of human SN12C cells assessed as cell growth at 10 uM by sulforhodamine B assay; conditions: read-out: Activity
SK-MEL-2 = test: Growth inhibition of human SK-MEL-2 cells assessed as cell growth at 10 uM by sulforhodamine B assay; conditions: read-out: Activity
CCRF-CEM = test: Growth inhibition of human CCRF-CEM cells assessed as cell growth at 10 uM by sulforhodamine B assay; conditions: read-out: Activity
NCI-H460 [26] = test: Growth inhibition of human NCI-H460 cells assessed as cell growth at 10 uM by sulforhodamine B assay; conditions: read-out: Activity
NCI-H322M = test: Growth inhibition of human NCI-H322M cells assessed as growth inhibition at 10 uM by sulforhodamine B assay; conditions: read-out: GI

SMILES: CC1(C)C[C@@H](O)[C@]2(C(=O)O)CC[C@]3(C)C(=CC[C@@H]4[C@@]5(C)CC[C@H](O)C(C)(C)[C@@H]5CC[C@]43C)[C@@H]2C1
- inhibition of growth at 10 µM (U-251): < 10%
- inhibition of growth at 10 µM (K562 [1]): < 10%
- growth at 10 µM (UACC-257): 107%
- inhibition of growth at 10 µM (SF-268 [2]): < 10%
- growth at 10 µM [3]: 109%
- growth at 10 µM (CAKI-1 [4]): 91.8%
- growth at 10 µM (M14 [5]): 93.6%
- growth at 10 µM (OVCAR-4): 96%
- inhibition of growth at 10 µM (KM12 [6]): < 10%
- inhibition of growth at 10 µM (RPMI-8226 [7]): 10.7%
- inhibition of growth at 10 µM (MDA-MB-435): < 10%
- inhibition of growth at 10 µM (SN12C [8]): 16.6%
- inhibition of growth at 10 µM (UO-31 [9]): 13.9%
- growth at 10 µM (SF-268 [10]): 102%
- inhibition of growth at 10 µM (SK-MEL-5): < 10%
- inhibition of growth at 10 µM (SF-539 [11]): < 10%
- growth at 10 µM (PC-3): 76.5%
- growth at 10 µM (UO-31 [12]): 85.5%
- inhibition of growth at 10 µM (RXF 393): < 10%
- inhibition of growth at 10 µM (UACC-62): 11.8%
- growth at 10 µM (BT-549 [13]): 90.3%
- growth at 10 µM (KM12 [14]): 90.1%
- growth at 10 µM (SF-295): 153%
- inhibition of growth at 10 µM (DU-145): < 10%
- growth at 10 µM [15]: 102%
- inhibition of growth at 10 µM (OVCAR-3): < 10%
- growth at 10 µM (SF-539 [16]): 106%
- growth at 10 µM (RPMI-8226 [17]): 89.3%
- inhibition of growth at 10 µM (CAKI-1 [18]): 15.2%
- inhibition of growth at 10 µM (SNB-19): < 10%
- growth at 10 µM (Malme-3M [19]): 102%
- growth at 10 µM (HCT-116): 82.7%
- growth at 10 µM (OVCAR-5): 119%
- inhibition of growth at 10 µM (M14 [20]): < 10%
- inhibition of growth at 10 µM (NCI-H460 [21]): < 10%
- inhibition of growth at 10 µM (Malme-3M [22]): < 10%
- growth at 10 µM (SW-620): 109%
- inhibition of growth at 10 µM (A498): < 10%
- growth at 10 µM (K562 [23]): 94%
- inhibition of growth at 10 µM (MDA-MB-468): 88.8%
- inhibition of growth at 10 µM (HL-60(TB)): 18%
- inhibition of growth at 10 µM (HCT-15): < 10%
- inhibition of growth at 10 µM (BT-549 [24]): < 10%
- growth at 10 µM (MCF7): 96.4%
- growth at 10 µM (SN12C [25]): 89.5%
- growth at 10 µM (SK-MEL-2): 97.9%
- growth at 10 µM (CCRF-CEM): 88.4%
- growth at 10 µM (NCI-H460 [26]): 101%
- inhibition of growth at 10 µM (NCI-H322M): < 10%

SMILES: COc1cc(/C=C2\C[C@]3(C)[C@H]4CC=C5[C@@H]6CC(C)(C)C[C@@H](O)[C@]6(C(=O)O)CC[C@@]5(C)[C@]4(C)CC[C@H]3C(C)(C)C2=O)ccc1O
- inhibition of growth at 10 µM (U-251): 15.3%
- inhibition of growth at 10 µM (K562 [1]): 28.8%
- growth at 10 µM (UACC-257): 91.4%
- inhibition of growth at 10 µM (SF-268 [2]): < 10%
- growth at 10 µM [3]: 95.2%
- growth at 10 µM (CAKI-1 [4]): 78.8%
- growth at 10 µM (M14 [5]): 103%
- growth at 10 µM (OVCAR-4): 83.8%
- inhibition of growth at 10 µM (KM12 [6]): 16%
- inhibition of growth at 10 µM (RPMI-8226 [7]): 40.5%
- inhibition of growth at 10 µM (MDA-MB-435): < 10%
- inhibition of growth at 10 µM (SN12C [8]): 12.5%
- inhibition of growth at 10 µM (UO-31 [9]): 24.1%
- growth at 10 µM (SF-268 [10]): 109%
- inhibition of growth at 10 µM (SK-MEL-5): 11.9%
- inhibition of growth at 10 µM (SF-539 [11]): < 10%
- growth at 10 µM (PC-3): 72.2%
- growth at 10 µM (UO-31 [12]): 75.5%
- inhibition of growth at 10 µM (RXF 393): < 10%
- inhibition of growth at 10 µM (UACC-62): 25%
- growth at 10 µM (BT-549 [13]): 106%
- growth at 10 µM (KM12 [14]): 84%
- growth at 10 µM (SF-295): 76.5%
- inhibition of growth at 10 µM (DU-145): < 10%
- growth at 10 µM [15]: 94%
- inhibition of growth at 10 µM (OVCAR-3): < 10%
- growth at 10 µM (SF-539 [16]): 96.1%
- growth at 10 µM (RPMI-8226 [17]): 59.5%
- inhibition of growth at 10 µM (CAKI-1 [18]): 21.2%
- inhibition of growth at 10 µM (SNB-19): < 10%
- growth at 10 µM (Malme-3M [19]): 81.1%
- growth at 10 µM (HCT-116): 84.8%
- growth at 10 µM (OVCAR-5): 105%
- inhibition of growth at 10 µM (M14 [20]): < 10%
- inhibition of growth at 10 µM (NCI-H460 [21]): < 10%
- inhibition of growth at 10 µM (Malme-3M [22]): 18.9%
- growth at 10 µM (SW-620): 108%
- inhibition of growth at 10 µM (A498): < 10%
- growth at 10 µM (K562 [23]): 71.2%
- inhibition of growth at 10 µM (MDA-MB-468): < 10%
- inhibition of growth at 10 µM (HL-60(TB)): 28.9%
- inhibition of growth at 10 µM (HCT-15): 23.5%
- inhibition of growth at 10 µM (BT-549 [24]): < 10%
- growth at 10 µM (MCF7): 77.5%
- growth at 10 µM (SN12C [25]): 87.5%
- growth at 10 µM (SK-MEL-2): 100%
- growth at 10 µM (CCRF-CEM): 82%
- growth at 10 µM (NCI-H460 [26]): 102%
- inhibition of growth at 10 µM (NCI-H322M): < 10%
